In publication PMC12655682, “Screening-Identified Oxazole-4-Carboxamide KB-2777 Exhibits In Vitro Anti-Coronavirus Activity” (Pharmaceutics, 2025):

What was measured:
[1] = system: HCoV-NL63-infected LLC-MK2 cells; assay: Propidium iodide (PI) live/dead imaging in HCoV-NL63/LLC-MK2; format: cell-based, rhesus monkey; conditions: 20 µM post-treatment, 48 h post-infection, vs virus + DMSO, p < 0.01
Protocol: Cells were infected as in the immunofluorescence assay (IFA) and were post-treated with KB-2777 (20 µM, DMSO ≤ 0.1%). At 48 h post-infection, cells were stained live with PI (approximately 1 µg/mL, 30 min) and were immediately imaged (PI/Hoechst). For each field, we counted total nuclei (Hoechst), NL63 S-positive cells, PI-positive cells, and double-positive (S∩PI) cells. Outcomes were % PI^+/Total and % PI^+ among infected cells (PI^+/NL63 S^+). […] Statistics used the Mann–Whitney U test (two-tailed).

[2] = system: HCoV-OC43; assay: Time-of-addition, TCID50 on Vero E6, HCoV-OC43; format: cell-based, Human coronavirus OC43; conditions: HCoV-OC43, titrated on Vero E6, 48 h
Protocol: HCoV-OC43 (KBPV-VR-8), HCoV-NL63 (KBPV-VR-88), and PEDV DR13 (originally described in [20]) were used. HCoV-NL63 was propagated in LLC-MK2 cells, and HCoV-OC43 and PEDV DR13 were propagated in Vero E6 cells. Virus-containing supernatants were clarified (2000× g, 10 min, 4 °C), aliquoted, and stored at −80 °C. Infectious titers (TCID50/mL) were determined on the corresponding host cell lines by the Spearman–Kärber method with back-titrations included in each experiment.
For HCoV-OC43, TOA was assessed by CPE reduction in MRC-5 cells and by TCID50 on Vero E6 (no IFA collected).
Figure S14. Time-of-addition (TOA) analysis of KB-2777 against HCoV-NL63 (48 h). (a) CPE-reduction assay. KB-2777 was applied at 20 µM (blue) or 5 µM (red) under the indicated TOA conditions (Full, Pre, Co, Post, DMSO).
Cell protection (%) was calculated relative to the DMSO control. […] (b) Infectious progeny released under the same TOA conditions, quantified as log10(TCID₅₀/mL) from culture supernatants (see Methods). […]
Figure S15. […] Cell protection (%) was calculated relative to the DMSO control. […]
Statistics: one-way ANOVA with Dunnett’s multiple comparisons vs DMSO; *P<0.05, **P<0.01, ***P<0.001, ****P<0.0001. (b) Infectious progeny released under the same TOA conditions, quantified as log₁₀(TCID₅₀/mL) from culture supernatants by endpoint dilution on Vero E6 indicator cells (Spearman–Kärber method; see Methods). […]

## COc1cccc(-c2oc(-c3ccc(C(F)(F)F)cc3)nc2C(=O)NCC2CC2)c1 [KB-2777, N-(cyclopropylmethyl)-5-(3-methoxyphenyl)-2-(4-(trifluoromethyl)phenyl)Oxazole-4-Carboxamide]
[1]
  % PI+ among infected cells (PI+/NL63 S+): reduces
  % PI+/Total cells: reduces
[2]
  TCID50 across TOA regimens: greatest antiviral effect with full exposure, intermediate activity with pre- and post-treatment, and little or no effect with co-treatment
